Assay results as given in patent US8785470B2, “Heterocyclic compounds and uses thereof” (Infinity Pharmaceuticals, Inc., priority 2011, dated 2014).

Assays:
PI3Kβ = target: T1, PI3Kβ (Homo sapiens, UniProt P42338); test: PI3-Kinase HTRF assay, PI3Kβ; type: biochemical; settings: bins Greater than 10 μM and Greater than 1 μM to 10 μM; 10 μM ATP, PIP2 at 10 μM
T1 construct: purchased Millipore Corporation 14-603-K
From the text: (§1) A PI3-Kinase HTRF® assay kit (cat No. 33-016) purchased from Millipore Corporation was used to screen compounds provided herein. This assay used specific, high affinity binding of the GRPI pleckstrin homology (PH) domain to PIP3, the product of a Class 1A or 1B PI3 Kinase acting on its physiological substrate PIP2. During the detection phase of the assay, a complex was generated between the GST-tagged PH domain and biotinylated short chain PIP3. The biotinylated PIP3 and the GST-tagged PH domain recruited fluorophores (Streptavidin-Allophycocyanin and Europium-labeled anti-GST respectively) to form the fluorescence resonance energy transfer (FRET) architecture, generating a stable time-resolved FRET signal. The FRET complex was disrupted in a competitive manner by non-biotinylated PIP3, a product formed in the PI3 Kinase assay.
(§2) PI3 Kinase α, β, γ and δ activity was assayed using the PI3 Kinase HTRF® assay kit (catalogue No. 33-016) purchased from Millipore Corporation. Purified recombinant PI3Kα (catalogue No. 14-602-K), PI3Kβ (catalogue No. 14-603-K), PI3Kγ (catalogue No. 14-558-K) and PI3Kδ (catalogue No. 14-604-K) were obtained from Millipore Corporation. Purified recombinant PI3K enzyme was used to catalyze the phosphorylation of phosphatidylinositol 4,5-bisphosphate (PIP2 at 10 μM) to phosphatidylinositol 3,4,5-trisphosphate (PIP3) in the presence of 10 μM ATP. The assay was carried out in 384-well format and detected using a Perkin Elmer EnVision Xcite Multilabel Reader. Emission ratios were converted into percent inhibitions and imported into GraphPad Prism software. The concentration necessary to achieve inhibition of enzyme activity by 50% (IC50) was calculated using concentrations ranging from 20 μM to 0.1 nM (12-point curve). IC50 values were determined using a nonlinear regression model available in GraphPad Prism 5. […]

Balb/c splenic B cells = test: B cell activation and proliferation assay; type: cell-based; settings: Mus musculus, column bins 1 μM to 100 nM (given as 100-1000) and Less than 100 nM, read-out: B cell proliferation EC50
Experimental: The ability of one or more subject compounds to inhibit B cell activation and proliferation is determined according to standard procedures known in the art. For example, an in vitro cellular proliferation assay is established that measures the metabolic activity of live cells. The assay is performed in a 96 well microtiter plate using Alamar Blue reduction. Balb/c splenic B cells are purified over a Ficoll-Paque™ PLUS gradient followed by magnetic cell separation using a MACS B cell Isolation Kit (Miletenyi). Cells are plated in 90 μl at 50.000 cells/well in B Cell Media (RPMI+10% FBS+Penn/Strep+50 μME5 mM HEPES). A compound provided herein is diluted in B Cell Media and added in a 10 μl volume. Plates are incubated for 30 min at 37° C. and 5% CO2 (0.2% DMSO final concentration). A 50 μl B cell stimulation cocktail is then added containing either 10 μg/ml LPS or 5 μg/ml F(ab′)2 Donkey anti-mouse IgM plus 2 ng/ml recombinant mouse IL4 in B Cell Media. Plates are incubated for 72 hours at 37° C. and 5% CO2. A volume of 15 μL of Alamar Blue reagent is added to each well and plates are incubated for 5 hours at 37° C. and 5% CO2. Alamar Blue fluoresce is read at 560Ex/590Em, and IC50 or EC50 values are calculated using GraphPad Prism 5.

PI3Kα = target: T2, PI3Kα (Homo sapiens, UniProt P42336); test: PI3-Kinase HTRF assay, PI3Kα; type: biochemical; settings: bins Greater than 10 μM and Greater than 1 μM to 10 μM; 10 μM ATP, PIP2 at 10 μM; read-out: IC50 P13Kα
T2 construct: purchased Millipore Corporation 14-602-K
T2 sequence (P42336 whole entry): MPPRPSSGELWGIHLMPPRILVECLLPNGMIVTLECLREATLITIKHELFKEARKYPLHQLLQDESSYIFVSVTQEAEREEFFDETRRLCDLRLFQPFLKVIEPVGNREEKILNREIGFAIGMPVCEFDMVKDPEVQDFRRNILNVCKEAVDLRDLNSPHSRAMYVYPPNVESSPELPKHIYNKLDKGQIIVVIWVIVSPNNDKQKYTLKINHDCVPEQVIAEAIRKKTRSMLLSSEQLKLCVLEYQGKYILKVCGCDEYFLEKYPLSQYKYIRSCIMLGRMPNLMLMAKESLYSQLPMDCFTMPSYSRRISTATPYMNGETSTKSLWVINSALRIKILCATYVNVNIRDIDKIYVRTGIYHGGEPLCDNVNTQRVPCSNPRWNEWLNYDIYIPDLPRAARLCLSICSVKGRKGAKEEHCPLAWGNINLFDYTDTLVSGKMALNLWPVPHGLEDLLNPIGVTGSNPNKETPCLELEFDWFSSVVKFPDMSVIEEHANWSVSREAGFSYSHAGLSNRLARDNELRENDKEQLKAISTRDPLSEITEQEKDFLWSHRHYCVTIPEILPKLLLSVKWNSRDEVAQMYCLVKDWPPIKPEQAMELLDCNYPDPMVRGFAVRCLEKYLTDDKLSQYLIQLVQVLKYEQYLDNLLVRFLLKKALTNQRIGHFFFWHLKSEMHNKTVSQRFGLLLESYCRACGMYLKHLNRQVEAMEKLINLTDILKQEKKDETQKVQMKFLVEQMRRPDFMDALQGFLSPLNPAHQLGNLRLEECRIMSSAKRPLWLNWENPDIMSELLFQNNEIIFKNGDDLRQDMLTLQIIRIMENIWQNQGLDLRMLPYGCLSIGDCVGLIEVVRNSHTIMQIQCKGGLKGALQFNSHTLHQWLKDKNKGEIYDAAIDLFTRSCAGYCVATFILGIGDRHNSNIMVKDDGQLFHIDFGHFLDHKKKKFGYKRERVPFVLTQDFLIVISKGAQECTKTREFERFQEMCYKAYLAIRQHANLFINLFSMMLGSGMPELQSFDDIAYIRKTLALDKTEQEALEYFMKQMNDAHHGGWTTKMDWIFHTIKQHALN
T2 sequence (P27986 whole entry partner): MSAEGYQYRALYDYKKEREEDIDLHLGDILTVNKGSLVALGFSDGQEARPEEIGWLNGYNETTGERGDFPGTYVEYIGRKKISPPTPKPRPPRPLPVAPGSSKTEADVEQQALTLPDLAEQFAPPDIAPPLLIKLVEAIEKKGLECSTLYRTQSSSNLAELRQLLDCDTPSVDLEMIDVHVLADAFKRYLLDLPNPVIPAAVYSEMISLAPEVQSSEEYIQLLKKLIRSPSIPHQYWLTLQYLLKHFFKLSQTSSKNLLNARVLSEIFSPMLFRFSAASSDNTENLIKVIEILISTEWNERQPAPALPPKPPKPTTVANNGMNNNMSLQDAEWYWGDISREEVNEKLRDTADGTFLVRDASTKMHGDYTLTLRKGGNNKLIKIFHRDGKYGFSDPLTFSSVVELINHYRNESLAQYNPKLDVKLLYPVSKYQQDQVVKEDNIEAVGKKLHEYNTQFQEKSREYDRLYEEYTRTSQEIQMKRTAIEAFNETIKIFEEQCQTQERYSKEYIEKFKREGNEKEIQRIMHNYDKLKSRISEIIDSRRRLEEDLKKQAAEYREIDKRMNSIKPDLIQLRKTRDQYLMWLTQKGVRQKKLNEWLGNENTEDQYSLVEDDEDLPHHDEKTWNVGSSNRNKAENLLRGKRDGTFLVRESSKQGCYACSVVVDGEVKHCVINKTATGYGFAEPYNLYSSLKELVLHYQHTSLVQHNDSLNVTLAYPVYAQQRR
From the text: as §1, §2

T1 sequence (P42338 whole entry): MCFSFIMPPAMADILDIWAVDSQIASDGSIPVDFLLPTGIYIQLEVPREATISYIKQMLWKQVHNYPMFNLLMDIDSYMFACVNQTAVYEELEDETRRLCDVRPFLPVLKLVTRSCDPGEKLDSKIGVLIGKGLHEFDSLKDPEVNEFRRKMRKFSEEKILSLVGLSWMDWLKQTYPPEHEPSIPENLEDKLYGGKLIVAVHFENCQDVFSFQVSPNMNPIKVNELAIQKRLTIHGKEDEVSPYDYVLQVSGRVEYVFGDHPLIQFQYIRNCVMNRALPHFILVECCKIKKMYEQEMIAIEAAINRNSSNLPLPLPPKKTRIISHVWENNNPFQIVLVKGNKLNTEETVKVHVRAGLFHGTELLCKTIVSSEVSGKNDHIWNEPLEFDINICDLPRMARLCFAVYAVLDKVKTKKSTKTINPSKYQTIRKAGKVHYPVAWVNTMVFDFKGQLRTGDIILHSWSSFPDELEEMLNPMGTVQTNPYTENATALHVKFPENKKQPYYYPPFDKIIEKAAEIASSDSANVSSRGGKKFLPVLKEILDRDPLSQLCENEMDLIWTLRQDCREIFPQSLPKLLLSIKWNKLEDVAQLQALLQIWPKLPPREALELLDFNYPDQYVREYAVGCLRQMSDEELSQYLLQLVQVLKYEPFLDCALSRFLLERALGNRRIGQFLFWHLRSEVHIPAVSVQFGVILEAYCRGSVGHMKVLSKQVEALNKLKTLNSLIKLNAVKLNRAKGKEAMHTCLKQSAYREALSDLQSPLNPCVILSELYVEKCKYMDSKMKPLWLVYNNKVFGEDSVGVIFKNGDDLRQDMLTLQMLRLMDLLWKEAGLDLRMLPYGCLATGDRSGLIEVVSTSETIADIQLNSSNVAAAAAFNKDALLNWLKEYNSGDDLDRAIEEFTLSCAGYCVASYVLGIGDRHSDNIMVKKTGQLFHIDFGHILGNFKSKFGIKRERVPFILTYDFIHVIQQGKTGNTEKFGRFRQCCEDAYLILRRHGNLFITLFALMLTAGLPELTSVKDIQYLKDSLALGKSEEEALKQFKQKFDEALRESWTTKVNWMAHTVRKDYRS
T1 sequence (P27986 whole entry partner): as the sequence (P27986 whole entry partner) above

Compound	IC50 (PI3Kβ)	EC50 (Balb/c splenic B cells)	IC50 (PI3Kα)
COc1cncc(-c2cccc3cc([C@H](C)Nc4nc(N)ncc4C(N)=O)n(-c4ccccc4)c(=O)c23)c1 [Compound 10, 2-amino-4-((S)-1-(8-(5-methoxypyridin-3-yl)-1-oxo-2-phenyl-1,2-dihydroisoquinolin-3-yl)ethylamino)pyrimidine-5-carboxamide]	1000 to 10000 nM	< 100 nM	–
Cc1cccc2cc([C@H](C)Nc3nc(N)ncc3C(F)(F)F)n(-c3cccc(F)c3)c(=O)c12 [Compound 16]	1000 to 10000 nM	< 100 nM	–
C[C@H](Nc1nc(N)ncc1C#N)c1cc2cccc(-c3cnc4ccccc4c3)c2c(=O)n1-c1cccc(F)c1 [Compound 23]	1000 to 10000 nM	< 100 nM	–
C[C@H](Nc1nc(N)ncc1C#N)c1cc2cccc(-c3cccc(Cl)c3)c2c(=O)n1-c1ccccc1 [Compound 34]	1000 to 10000 nM	–	–
COc1cccc(-c2cccc3cc([C@H](C)Nc4nc(N)ncc4C#N)n(-c4ccccc4)c(=O)c23)c1 [Compound 36]	1000 to 10000 nM	–	–
C[C@H](Nc1nc(N)ncc1C#N)c1cc2cccc(-c3ccc(F)cc3)c2c(=O)n1-c1ccccc1 [Compound 37]	1000 to 10000 nM	–	–
C[C@H](Nc1nc(N)ncc1C#N)c1cc2cccc(-c3cccc(N(C)C)c3)c2c(=O)n1-c1ccccc1 [Compound 40]	1000 to 10000 nM	–	–
Cc1cccc(-c2cccc3cc([C@H](C)Nc4nc(N)ncc4C#N)n(-c4ccccc4)c(=O)c23)c1 [Compound 46]	1000 to 10000 nM	–	–
CC(C)Oc1cncc(-c2cccc3cc([C@H](C)Nc4nc(N)ncc4C#N)n(-c4ccccc4)c(=O)c23)c1 [Compound 53]	1000 to 10000 nM	–	–
C#Cc1cnc(N)nc1N[C@@H](C)c1cc2cccc(Cl)c2c(=O)n1-c1ccccc1 [Compound 91]	–	< 100 nM	1000 to 10000 nM
COc1ccc(-c2cccc3cc([C@H](C)Nc4nc(N)ncc4C#N)n(C4CC4)c(=O)c23)cn1 [Compound 108]	–	< 100 nM	1000 to 10000 nM
Cc1csc(-c2cnc(N)nc2N[C@@H](C)c2cc3cccc(Cl)c3c(=O)n2-c2ccccc2)n1 [Compound 136]	–	< 100 nM	1000 to 10000 nM
C[C@H](Nc1nc(N)ncc1C#N)c1cc2cccc(O)c2c(=O)n1-c1ccccc1 [Compound 145]	1000 to 10000 nM	–	–
C[C@H](Nc1nc(N)ncc1C#N)c1cc2cccc(-c3cncc(OC(F)F)c3)c2c(=O)n1-c1ccccc1 [Compound 152]	–	< 100 nM	1000 to 10000 nM
C[C@H](Nc1nc(N)ncc1C#N)c1cc2cccc(-c3ccc(O)nc3)c2c(=O)n1-c1ccccc1 [Compound 156]	–	< 100 nM	1000 to 10000 nM
C[C@H](Nc1nc(N)ncc1C#N)c1cc2cccc(-c3cccc(S(C)(=O)=O)c3)c2c(=O)n1-c1ccccc1 [Compound 164]	–	< 100 nM	1000 to 10000 nM
C[C@H](Nc1nc(N)ncc1-c1ccncc1)c1cc2cccc(Cl)c2c(=O)n1-c1ccccc1 [Compound 168]	1000 to 10000 nM	–	–
COc1cc(-c2cccc3cc([C@H](C)Nc4nc(N)ncc4-c4ccncc4)n(-c4ccccc4)c(=O)c23)ccn1 [Compound 169]	–	< 100 nM	1000 to 10000 nM
COc1cc(-c2cccc3cc([C@H](C)Nc4nc(N)ncc4[N+](=O)[O-])n(-c4ccccc4)c(=O)c23)ccn1 [Compound 177]	–	< 100 nM	1000 to 10000 nM
CNc1cc(-c2cccc3cc([C@H](C)Nc4nc(N)ncc4C#N)n(-c4ccccc4)c(=O)c23)ccn1 [Compound 185]	–	< 100 nM	1000 to 10000 nM
C[C@H](Nc1nc(N)ncc1C(=O)N(C)C)c1cc2cccc(Cl)c2c(=O)n1-c1ccccc1 [Compound 199]	–	< 100 nM	1000 to 10000 nM
C[C@H](Nc1nc(N)ncc1C(=O)N(C)C)c1cc2cccc(-c3cnn(C)c3)c2c(=O)n1-c1ccccc1 [Compound 203]	–	< 100 nM	1000 to 10000 nM
COc1ccc(-c2cccc3cc([C@H](C)Nc4nc(N)ncc4C#N)n(-c4ccccc4)c(=O)c23)nc1 [Compound 206]	–	< 100 nM	1000 to 10000 nM
C[C@H](Nc1nc(N)ncc1C#N)c1cc2cccc(Cl)c2c(=O)n1-c1ccc(OC(F)(F)F)cc1 [Compound 210]	1000 to 10000 nM	–	–

Compound	IC50 (PI3Kβ)	EC50 (Balb/c splenic B cells)	IC50 (PI3Kα)
COc1ccc(-n2c([C@H](C)Nc3nc(N)ncc3C#N)cc3cccc(Cl)c3c2=O)cc1 [Compound 214]	1000 to 10000 nM	–	–
C[C@H](Nc1nc(N)ncc1C#N)c1cc2cccc(Cl)c2c(=O)n1-c1ccc(Cl)cc1 [Compound 217]	–	< 100 nM	1000 to 10000 nM
CC#Cc1cccc2cc([C@H](C)Nc3nc(N)ncc3C#N)n(-c3ccccc3)c(=O)c12 [Compound 222]	–	< 100 nM	1000 to 10000 nM
Cc1cc(-c2cccc3cc([C@H](C)Nc4nc(N)ncc4C#N)n(-c4ccccc4)c(=O)c23)cn(C)c1=O [Compound 231]	–	< 100 nM	1000 to 10000 nM
C[C@H](Nc1nc(N)ncc1C#N)c1cc2cccc(-c3ccc(=O)n(C4CCOCC4)c3)c2c(=O)n1-c1ccccc1 [Compound 235]	1000 to 10000 nM	–	–
C[C@H](Nc1nc(N)ncc1C#N)c1cc2cccc(Cl)c2c(=O)n1-c1cscn1 [Compound 249]	–	< 100 nM	1000 to 10000 nM
C[C@H](Nc1nc(N)ncc1C#N)c1cc2cccc(Cl)c2c(=O)n1-c1c(F)cc(F)cc1F [Compound 258]	1000 to 10000 nM	–	–
C[C@H](Nc1nc(N)ncc1C#N)c1cc2cccc(Cl)c2c(=O)n1-c1ccc2c(c1)OCO2 [Compound 261]	1000 to 10000 nM	–	–
C[C@H](Nc1nc(N)ncc1C#N)c1cc2cccc(Cl)c2c(=O)n1-c1cccc(F)c1F [Compound 282]	1000 to 10000 nM	–	–
C[C@H](Nc1nc(N)ncc1C#N)c1cc2cccc(Cl)c2c(=O)n1Cc1ccccc1 [Compound 303]	1000 to 10000 nM	–	–
CCn1c([C@H](C)Nc2nc(N)ncc2C#N)cc2cccc(Cl)c2c1=O [Compound 309]	–	< 100 nM	1000 to 10000 nM
CC(C)n1c([C@H](C)Nc2nc(N)ncc2C#N)cc2cccc(Cl)c2c1=O [Compound 325]	–	< 100 nM	1000 to 10000 nM
C[C@H](Nc1nc(N)ncc1C#N)c1cc2cccc(Cl)c2c(=O)n1-c1ccon1 [Compound 332]	–	< 100 nM	1000 to 10000 nM
C[C@H](Nc1nc(N)ncc1-c1cscn1)c1cc2cccc(Cl)c2c(=O)n1-c1ccccc1 [Compound 360]	–	< 100 nM	1000 to 10000 nM
C[C@H](Nc1nc(N)ncc1-c1cncs1)c1cc2cccc(Cl)c2c(=O)n1-c1ccccc1 [Compound 361]	–	< 100 nM	1000 to 10000 nM
C[C@H](Nc1nc(N)ncc1-c1ncco1)c1cc2cccc(Cl)c2c(=O)n1-c1ccccc1 [Compound 365]	–	< 100 nM	1000 to 10000 nM
Cc1nc(-c2cnc(N)nc2N[C@@H](C)c2cc3cccc(Cl)c3c(=O)n2-c2ccccc2)sc1C [Compound 366]	1000 to 10000 nM	–	–
Cc1cnc(-c2cnc(N)nc2N[C@@H](C)c2cc3cccc(Cl)c3c(=O)n2-c2ccccc2)s1 [Compound 368]	1000 to 10000 nM	–	–
CCOc1nc(-c2cnc(N)nc2N[C@@H](C)c2cc3cccc(Cl)c3c(=O)n2-c2ccccc2)cs1 [Compound 369]	–	< 100 nM	1000 to 10000 nM
CCOc1ncc(-c2cnc(N)nc2N[C@@H](C)c2cc3cccc(Cl)c3c(=O)n2-c2ccccc2)s1 [Compound 371]	–	< 100 nM	1000 to 10000 nM
C[C@H](Nc1nc(N)ncc1-c1ccsc1)c1cc2cccc(Cl)c2c(=O)n1-c1ccccc1 [Compound 373]	1000 to 10000 nM	–	–
C[C@H](Nc1nc(N)ncc1-c1ccccn1)c1cc2cccc(Cl)c2c(=O)n1-c1ccccc1 [Compound 375]	1000 to 10000 nM	–	–
C[C@H](Nc1nc(N)ncc1-c1cnn(C)c1)c1cc2cccc(Cl)c2c(=O)n1-c1ccccc1 [Compound 376]	1000 to 10000 nM	–	–
C[C@H](Nc1nc(N)ncc1-c1ccc(O)cc1)c1cc2cccc(Cl)c2c(=O)n1-c1ccccc1 [Compound 436]	1000 to 10000 nM	–	–
